Earlier results on two compounds are cited in article PMC3483082 (Chembiochem : a European journal of chemical biology, 2012).

In one series the test system is CDK1. Conditions: read-out: IC50 CDK1.
A further series relates to CDK2. Conditions: read-out: IC50 (CDK2 inhibitor).

Regarding `CCN(CC)CCNC(=O)c1c(C)[nH]c(/C=C2\C(=O)Nc3ccc(F)cc32)c1C` [Hit 1, sunitinib], the IC50 (as a rule, the concentration that gives 50% inhibition) in the series with CDK1 was 2600 nM.
Regarding `COc1ccc2c(c1)/C(=C/c1cnc[nH]1)C(=O)N2` [SU9516], the half-inhibitory concentration (IC50) with CDK2 is […].
